In patent US5496809A, “Stable solutions of rebeccamycin analog” (priority 1989, dated 1996):
Counter-ions that a name gives are not always drawn. Like-named read-outs stand apart in the source and are kept apart here.

Experiments:
Solubility in water = type: physicochemical
Excerpt: The compound is referred to in Kaneko et al U.S. Pat. No. 4,785,085 as 6-(2-diethylaminoethyl)rebeccmycin and its preparation is described in Example 1 of the patent and its effectiveness to inhibit growth of tumors in experimental animal systems is shown in Table 3 of the patent. […] Instead, it forms a suspension.
Besides being stable at room temperature, the solutions herein have enhanced solubility at low temperatures, e.g., refrigeration temperatures or cold conditions encountered during shipping or storage, etc.
Pharmaceutically acceptable acid components (c) which meet this solubility criterion include, for example, L-(+)-tartaric, D,L-malic, L-(-)-malic, citric, L-(+)-lactic, lactobionic, methanesulfonic, phosphoric, pyroglutamic, succinic and sulfuric acids. The most preferred acid of these is L-(+)-tartaric acid.

[1] = tested on: transplanted mouse leukemia P-338
Excerpt: (§1) The screening procedures involved administration of test compound intraperitonially (IP) to CDF1 female mice (18 to 22 grams) infected with 1×10^6 ascites cells intraperitonially, and intravenously (IV) to CDF1 female mice (18 to 22 Grams) infected with 1×10 ascites cells intravenously. Drug therapy was started on Day 1 (date of implant) and consisted of 1 injection per day for 5 successive days. […] Mitomycin C is included for comparison purposes.

[2] = tested on: transplanted mouse leukemia P-338; details: for % T/C (median survival time) / MST (median survival time): IV, 5 daily injections; for AWC (average weight change at Day 5): mouse, in vivo, iv
Excerpt: as §1

[3] = Long term physical stability of aqueous solutions at room temperature; type: physicochemical; details: one molar equivalent of acid; period less than 2 years at room temperature
Excerpt: These unexpected physical instabilities include gelling, precipitation, cloudiness, and formation of liquid crystalline phases which render solutions of the crystalline salts unsuitable for practical use as, or for dilution with water to provide, injectable solutions.

[4] = IP, 4.8 mg/kg/inj, 5 daily injections

Structure (SMILES): CCN(CC)CCN1C(=O)c2c(c3c4cccc(Cl)c4n([C@@H]4O[C@H](CO)[C@@H](OC)[C@H](O)[C@H]4O)c3c3[nH]c4c(Cl)cccc4c23)C1=O
- solubility in water (in words) (Solubility in water; added to water to form an aqueous injectable solution): not sufficiently soluble in water

Structure (SMILES): CO[C@@]12[C@H](COC(N)=O)C3=C(C(=O)C(C)=C(N)C3=O)N1C[C@@H]1N[C@@H]12 [Mitomycin C]
- % T/C (median survival time) [1, 4]: 205%
- MST (median survival time) [1, 4]: 20.5 days
- AWC (average weight change at Day 5) ([1]; mouse, in vivo, ip, 4.8 mg/kg): -0.6 Grams
- % T/C (median survival time) ([2]; 1.6 mg/kg/inj): 127%
- MST (median survival time) ([2]; 1.6 mg/kg/inj): 9.5 days
- % T/C (median survival time) ([2]; 4.8 mg/kg/inj): 160%
- MST (median survival time) ([2]; 4.8 mg/kg/inj): 12.0 days
- AWC (average weight change at Day 5) ([2]; 1.6 mg/kg): 0.4 Grams
- AWC (average weight change at Day 5) ([2]; 4.8 mg/kg): -0.1 Grams

Structure (SMILES): CCN(CC)CCN1C(=O)c2c(c3c4cccc(Cl)c4n([C@@H]4O[C@H](CO)[C@@H](OC)[C@H](O)[C@H]4O)c3c3[nH]c4c(Cl)cccc4c23)C1=O [hydrochloride salt]
- physical instability / shelf stability of solutions of acid addition salts (in words) [3]: do not form aqueous solutions which are sufficiently shelf stable

Structure (SMILES): CCN(CC)CCN1C(=O)c2c(c3c4cccc(Cl)c4n([C@@H]4O[C@H](CO)[C@@H](OC)[C@H](O)[C@H]4O)c3c3[nH]c4c(Cl)cccc4c23)C1=O [succinic]
- solubility (Solubility in water; water, salt formed from free base and a molar equivalent of acid, room temperature, read-out: solubility of acid addition salt in water): > 25 mg/mL
